Experimental data from patent US4882313A, “Carboxamide derivatives of glycopeptides” (SmithKline Beckman Corporation, priority 1987, dated 1989).

Columns and labels:
[1] = tested on: Staphylococcus haemolyticus; experiment: standard microtiter assay, minimum inhibitory concentration; assay type: cell-based; conditions: Test Organism 7, Staphylococcus haemolyticus
Source text: (§1) Representative results of standard microtiter assays are reported in Table 1 which follows, as the minimum inhibitory concentration of antibiotic (mg/ml). In Table 1, test organisms 1-5 were different strains of Staphylococcus aureus; 6, 8, 11, 13 and 14 were different strains of Staphylococcus epidermidis; 7 was a Staphylococcus haemolyticus; 9 and 10 were different strains of Streptococcus faecalis; and 12 was a Staphylococcus saprophyticus.

[2] = tested on: Staphylococcus aureus; experiment: as above; assay type: cell-based; conditions: for minimum inhibitory concentration of antibiotic, Test Organism 1: Test Organism 1, strain of Staphylococcus aureus; for minimum inhibitory concentration of antibiotic, Test Organism 2: Test Organism 2, strain of Staphylococcus aureus; for minimum inhibitory concentration of antibiotic, Test Organism 3: Test Organism 3, strain of Staphylococcus aureus; for minimum inhibitory concentration of antibiotic, Test Organism 4: Test Organism 4, strain of Staphylococcus aureus; for minimum inhibitory concentration of antibiotic, Test Organism 5: Test Organism 5, strain of Staphylococcus aureus
Source text: as §1

[3] = tested on: Streptococcus faecalis; experiment: as above; assay type: cell-based; conditions: for minimum inhibitory concentration of antibiotic, Test Organism 9: Test Organism 9, strain of Streptococcus faecalis; for minimum inhibitory concentration of antibiotic, Test Organism 10: Test Organism 10, strain of Streptococcus faecalis
Source text: as §1

[4] = tested on: Staphylococcus saprophyticus; experiment: as above; assay type: cell-based; conditions: Test Organism 12, Staphylococcus saprophyticus
Source text: as §1

[5] = tested on: Staphylococcus epidermidis; experiment: as above; assay type: cell-based; design: minimum inhibitory concentration of antibiotic, Test Organism 8: unit not given here; conditions: for minimum inhibitory concentration of antibiotic, Test Organism 6: Test Organism 6, strain of Staphylococcus epidermidis; for minimum inhibitory concentration of antibiotic, Test Organism 8: Test Organism 8, strain of Staphylococcus epidermidis; for minimum inhibitory concentration of antibiotic, Test Organism 11: Test Organism 11, strain of Staphylococcus epidermidis; for minimum inhibitory concentration of antibiotic, Test Organism 13: Test Organism 13, strain of Staphylococcus epidermidis; for minimum inhibitory concentration of antibiotic, Test Organism 14: Test Organism 14, strain of Staphylococcus epidermidis
Source text: as §1

[6] = pI (analytical data, Table 2); assay type: physicochemical
Source text: Using substantially the procedures of both Examples 1 and 2, the compounds of Examples 3-15 were obtained by using the appropriate glycopeptide and amine starting materials.

pI [6]	Compound	minimum inhibitory concentration of antibiotic, Test Organism 7 [1]	minimum inhibitory concentration of antibiotic, Test Organism 1 [2]	minimum inhibitory concentration of antibiotic, Test Organism 2 [2]	minimum inhibitory concentration of antibiotic, Test Organism 3 [2]	minimum inhibitory concentration of antibiotic, Test Organism 4 [2]	minimum inhibitory concentration of antibiotic, Test Organism 5 [2]	minimum inhibitory concentration of antibiotic, Test Organism 9 [3]	minimum inhibitory concentration of antibiotic, Test Organism 10 [3]	minimum inhibitory concentration of antibiotic, Test Organism 12 [4]	minimum inhibitory concentration of antibiotic, Test Organism 6 [5]	minimum inhibitory concentration of antibiotic, Test Organism 8 [5]	minimum inhibitory concentration of antibiotic, Test Organism 11 [5]	minimum inhibitory concentration of antibiotic, Test Organism 13 [5]	minimum inhibitory concentration of antibiotic, Test Organism 14 [5]
7.8	CNC1C(=O)NC2C(=O)NC(C(=O)NC3C(=O)NC4C(=O)NC(C(=O)NC(C(=O)NCCN)c5cc(O)cc(OC6OC(CO)C(O)C(O)C6O)c5-c5cc4ccc5O)C(O)c4cc(Cl)c(c(Cl)c4)Oc4cc3cc(c4O)Oc3ccc(cc3Cl)C2O)c2cc(cc(O)c2Cl)Oc2cc1ccc2O (stereo not drawn) [Compound 2o, Ardacin mannosylaglycone-(2-aminoethyl amide)]	1600 µg/mL	400 µg/mL	400 µg/mL	400 µg/mL	400 µg/mL	400 µg/mL	200 µg/mL	200 µg/mL	400 µg/mL	400 µg/mL	0.8	800 µg/mL	100 µg/mL	
7.3	CNC1C(=O)NC2C(=O)NC(C(=O)NC3C(=O)NC4C(=O)NC(C(=O)NC(C(N)=O)c5cc(O)cc(OC6OC(CO)C(O)C(O)C6O)c5-c5cc4ccc5O)C(O)c4ccc(c(Cl)c4)Oc4cc3cc(c4OC3OC(C(N)=O)C(O)C(O)C3NC(=O)CCCCCCCCC(C)C)Oc3ccc(cc3)C2O)c2cc(cc(O)c2Cl)Oc2cc1ccc2O (stereo not drawn) [Compound 2q, AAJ-271 C1 diamide]	3100 µg/mL	800 µg/mL	1600 µg/mL	800 µg/mL	> 1600 µg/mL	1600 µg/mL	200 µg/mL	200 µg/mL	12500 µg/mL	12500 µg/mL	6.3	12500 µg/mL	3100 µg/mL	3100 µg/mL

Second part, the compound before the results:

Compound	pI [6]	minimum inhibitory concentration of antibiotic, Test Organism 7 [1]	minimum inhibitory concentration of antibiotic, Test Organism 1 [2]	minimum inhibitory concentration of antibiotic, Test Organism 2 [2]	minimum inhibitory concentration of antibiotic, Test Organism 3 [2]	minimum inhibitory concentration of antibiotic, Test Organism 4 [2]	minimum inhibitory concentration of antibiotic, Test Organism 5 [2]	minimum inhibitory concentration of antibiotic, Test Organism 9 [3]	minimum inhibitory concentration of antibiotic, Test Organism 10 [3]	minimum inhibitory concentration of antibiotic, Test Organism 12 [4]	minimum inhibitory concentration of antibiotic, Test Organism 6 [5]	minimum inhibitory concentration of antibiotic, Test Organism 8 [5]	minimum inhibitory concentration of antibiotic, Test Organism 11 [5]	minimum inhibitory concentration of antibiotic, Test Organism 13 [5]	minimum inhibitory concentration of antibiotic, Test Organism 14 [5]
CNC1C(=O)NC2C(=O)NC(C(=O)NC3C(=O)NC4C(=O)NC(C(=O)NC(C(N)=O)c5cc(O)cc(O)c5-c5cc4ccc5O)C(O)c4cc(Cl)c(c(Cl)c4)Oc4cc3cc(c4O)Oc3ccc(cc3Cl)C2O)c2cc(cc(O)c2Cl)Oc2cc1ccc2O (stereo not drawn) [Compound 2c, Ardacin aglycone amide]	7.1	800 µg/mL	200 µg/mL	200 µg/mL	400 µg/mL	400 µg/mL	200 µg/mL	200 µg/mL	400 µg/mL	200 µg/mL	400 µg/mL	0.4	400 µg/mL	400 µg/mL	200 µg/mL
CNC1C(=O)NC2C(=O)NC(C(=O)NC3C(=O)NC4C(=O)NC(C(=O)NC(C(=O)NCCCCCCN)c5cc(O)cc(O)c5-c5cc4ccc5O)C(O)c4cc(Cl)c(c(Cl)c4)Oc4cc3cc(c4O)Oc3ccc(cc3Cl)C2O)c2cc(cc(O)c2Cl)Oc2cc1ccc2O (stereo not drawn) [Compound 2h, Ardacin aglycone-(6-aminohexyl amide)]	7.7	200 µg/mL	100 µg/mL	100 µg/mL	400 µg/mL	100 µg/mL	100 µg/mL	100 µg/mL	100 µg/mL	200 µg/mL	100 µg/mL	0.1	200 µg/mL	100 µg/mL	
CCCCCCCCCC(=O)NC1C(Oc2c3cc4cc2Oc2c(Cl)cc(cc2Cl)C(O)C2NC(=O)C(NC(=O)C4NC(=O)C4NC(=O)C(NC(=O)C(NC)c5ccc(O)c(c5)Oc5cc(O)c(Cl)c4c5)C(O)c4ccc(c(Cl)c4)O3)c3ccc(O)c(c3)-c3c(OC4OC(CO)C(O)C(O)C4O)cc(O)cc3C(C(=O)NCCO)NC2=O)OC(C(=O)NCCO)C(O)C1O (stereo not drawn) [Compound 2l, Ardacin A-di-(2-hydroxyethyl amide)]	7.3	800 µg/mL	200 µg/mL	200 µg/mL	200 µg/mL	400 µg/mL	400 µg/mL	100 µg/mL	100 µg/mL	800 µg/mL	1600 µg/mL	0.4	800 µg/mL	200 µg/mL	
